One experiment addresses T1, LIMK1 (Homo sapiens, UniProt P53667).
T1 construct: purchased Thermo Fisher Scientific (SelectScreen Kinase assay service)
Nature of the experiment: LanthaScreen Eu kinase binding assay (SelectScreen), LIMK1 inhibition. To be noted: for inhibition at 10 µM: compound at 10 μM, average of two replicates, read-out: Inhibition percentage at 10 μM. As to the method: The inhibitory activities of the compounds against kinases were tested using the SelectScreen Kinase assay from Thermo Fisher Scientific in Waltham, MA, USA. The LanthaScreen Eu kinase binding assay was used to validate the LIMK1 inhibition activity of the compounds, and was performed according to the manufacturer’s protocol (https://www.thermofisher.com/tw/zt/home/industrial/pharma-biopharma/drug-discovery-development/target-and-lead-identification-and-validation/kinasebiology/kinase-activity-assays/lanthascreentm-eu-kinase-binding-assay/lanthascreen-eu-kinase-binding-assay-validation-table.html). This endpoint assay quantifies inhibitor binding through the displacement of a fluorescently labelled ATP-competitive tracer from LIMK1. A mixture of the 100× compounds, 2× LIMK1/antibody mixture (Eu-anti-His), 4× tracer 236, and kinase buffer were mixed sequentially. After incubation at room temperature for 1 h, the mixture was analysed using a fluorescence plate reader. The kinase inhibition assay results were expressed as the average of two replicates.
A general note: In TR-FRET formats the signal depends on donor and acceptor labels being close together.

For experiment [1], the system named is HT-29. The experiment can be described thus: Sulforhodamine B assay (cell proliferation). The format is cell-based. To be noted: Homo sapiens, SRB assay, 72 h, mean ± SD. As to the method: (§1) Colorectal cell line, HCT-116, was purchased from the Bioresource Collection and Research Centre (BCRC, Hsinchu, Taiwan), while HT-29 was obtained from the American Type Culture Collection (ATCC, Manassas, VA, USA). Both cell lines were maintained in McCoy’s 5 A medium (with L-glutamine and 2.2 g/L NaHCO3, M4892, Sigma) supplemented with 10% foetal bovine serum (Corning Incorporated, NY, USA) and 1% penicillin–streptomycin–amphotericin B (100 unit/ml penicillin G, 0.1 mg/ml streptomycin sulphate, 0.25 μg/ml amphotericin B, Corning Incorporated, NY, USA). All cultures were maintained in a humidified incubator at 37 °C with 5% CO2.
(§2) Cells were seeded in 96-well plates at a density of 3 × 10^3 cells/well in 100 μl of culture medium and treated with compounds at the indicated concentrations for 72 h. After treatment, cells were fixed with 10% trichloroacetic acid for 20 min and washed with H2O. The cells were then stained with 0.4% sulforhodamine B (SRB) in 1% acetic acid for 20 min, followed by two washes with 1% acetic acid. After the well-dried, the protein-bound dye was dissolved in 100 µl of 10 mM Tris base solution, and the absorbance was measured at 515 nm using an ELISA reader (Molecular Device, Sunnyvale, CA, USA).

Experiment [2] deals with HCT-116. Nature of the experiment: Sulforhodamine B assay (cell proliferation). The format is cell-based. On the procedure: as §1, §2
The test system of experiment [3] is HT-29. The experiment can be described thus: MTT assay (cell viability). The format is cell-based. The conditions noted are these: Homo sapiens, 72 h, mean ± SD. As to the method: as §1
(§3) Cells were seeded in 96-well plates at a density of 3 × 10^3 cells/well in 100 μl of culture medium and treated with compounds at the indicated concentrations (0.3, 1, 3, 10, and 30 μM) for 72 h. Following treatment, the 3-(4,5-dimethylthiazol-2-yl)-2,5-diphenyltetrazolium bromide (MTT) solution (5 mg/ml in Phosphate-buffered saline (PBS)) was added to each well to reach a final concentration of 0.5 mg/ml, and the cells were incubated at 37 °C for 1 h. The resulting formazan crystal was dissolved in 100 µl of DMSO, and the absorbance was measured at 550 nm using an ELISA reader (Molecular Device, Sunnyvale, CA, USA).
On the technique in general: Tetrazolium assays rely on reduction of a dye to a coloured formazan, in cell work by metabolically active cells.

Experiment [4] has as its system HCT-116. Nature of the experiment: MTT assay (cell viability). The format is cell-based. To be noted: Homo sapiens, 72 h, mean ± SD. On the procedure: as §1, §3
The subject of another experiment is LIMK. The conditions noted are these: cited from earlier work.

The values below come from article PMC12624955, “Exploring diarylheptanoid derivatives to target LIMK1 as potential agents against colorectal cancer” (Journal of Enzyme Inhibition and Medicinal Chemistry, 2025).

Where two headings read alike, the source gives them in different places.

T1 sequence (P53667 whole entry): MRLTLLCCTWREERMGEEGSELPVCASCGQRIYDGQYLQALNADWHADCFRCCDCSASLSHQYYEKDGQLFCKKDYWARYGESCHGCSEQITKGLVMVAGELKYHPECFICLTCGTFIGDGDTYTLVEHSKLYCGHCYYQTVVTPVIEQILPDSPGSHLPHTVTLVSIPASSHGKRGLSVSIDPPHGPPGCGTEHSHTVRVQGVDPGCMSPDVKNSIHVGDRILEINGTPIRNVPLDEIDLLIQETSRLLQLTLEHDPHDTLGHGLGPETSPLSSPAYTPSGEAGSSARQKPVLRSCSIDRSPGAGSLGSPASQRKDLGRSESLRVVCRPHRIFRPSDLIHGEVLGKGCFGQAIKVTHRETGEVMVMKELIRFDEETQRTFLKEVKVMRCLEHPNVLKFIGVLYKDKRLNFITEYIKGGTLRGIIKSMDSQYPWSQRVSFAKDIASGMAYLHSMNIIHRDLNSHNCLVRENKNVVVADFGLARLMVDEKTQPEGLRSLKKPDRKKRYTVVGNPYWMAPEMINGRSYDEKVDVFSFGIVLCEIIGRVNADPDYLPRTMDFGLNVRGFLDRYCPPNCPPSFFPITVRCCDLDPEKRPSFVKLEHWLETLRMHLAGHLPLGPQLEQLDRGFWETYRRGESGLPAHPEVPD

On to `O=C(/C=C/c1ccc(O)c(O)c1)CCCCc1ccccc1O` [Compound 7a, 1-(3.4-Dihydroxyphenyl)-7-(2-hydroxyphenyl)hept-1-en-3-one], for which, at LIMK1, the IC50 is 1770 nM and the inhibition at 10 µM is 89%.
`O=C(/C=C/c1ccc(O)c(O)c1)CCCCc1cccc(O)c1` [Compound 7b, 1-(3.4-Dihydroxyphenyl)-7-(3-hydroxyphenyl)hept-1-en-3-one]: at LIMK1, the IC50 worked out at 1110 nM and the inhibition at 10 µM came out at 102%.
The matching figures for `O=C(/C=C/c1ccc(O)c(O)c1)CCCCc1ccc(O)cc1` [Compound 7c, 1-(3.4-Dihydroxyphenyl)-7-(4-hydroxyphenyl)hept-1-en-3-one]: 1090 nM and 106%.
Regarding `O=C(CCCCc1ccccc1O)CCc1ccc(O)c(O)c1` [Compound 8a, 1-(3.4-Dihydroxyphenyl)-7-(2-hydroxyphenyl)heptan-3-one], the inhibition at 10 µM on LIMK1 is 37%.
On to `O=C(CCCCc1cccc(O)c1)CCc1ccc(O)c(O)c1` [Compound 8b, 1-(3.4-Dihydroxyphenyl)-7-(3-hydroxyphenyl)heptan-3-one], for which the inhibition at 10 µM on LIMK1 worked out at 34%.
Take `O=C(CCCCc1ccc(O)cc1)CCc1ccc(O)c(O)c1` [Compound 8c, 1-(3.4-Dihydroxyphenyl)-7-(4-hydroxyphenyl)heptan-3-one]: the inhibition at 10 µM at LIMK1 is 47%.
`O=C(/C=C/c1ccc(O)c(O)c1)CCCCn1ccc2ccc(O)cc21` [Compound 13b, (E)-1-(3.4-dihydroxyphenyl)-7-(6-hydroxy-1H-indol-1-yl)hept-1-en-3-one]: on LIMK1, the 50% inhibitory concentration (IC50) was 1390 nM and the inhibition at 10 µM turned out to be 106%.
As to `O=C(CCCCn1ccc2c(O)cccc21)CCc1ccc(O)c(O)c1` [Compound 14a, 1-(3,4-Dihydroxyphenyl)-7-(4-hydroxy-1H-indol-1-yl)heptan-3-one], the inhibition at 10 µM at LIMK1 worked out at 51%.
Consider `O=C(CCCCn1ccc2ccc(O)cc21)CCc1ccc(O)c(O)c1` [Compound 14b, 1-(3,4-Dihydroxyphenyl)-7-(6-hydroxy-1H-indol-1-yl)heptan-3-one], for which, at LIMK1, the inhibition at 10 µM stood at 53%.
Take `COCOc1cccc2c1ccn2CCCCC(=O)/C=C/c1ccc(O)c(O)c1` [Compound 15, (E)-1-(3,4-dihydroxyphenyl)-7-(4-(methoxymethoxy)-1H-indol-1-yl)hept-1-en-3-one]: on LIMK1, the half-inhibitory concentration (IC50) came out at 1880 nM and the inhibition at 10 µM is 106%.
Take `O=C(/C=C/c1ccc(O)c(O)c1)CCCCn1ccc2ccccc21` [Compound 18, (E)-1-(3,4-dihydroxyphenyl)-7-(1H-indol-1-yl)hept-1-en-3-one]: at LIMK1, the IC50 worked out at 1490 nM and the inhibition at 10 µM stood at 110%.
As to `O=C(CCCCn1ccc2ccccc21)CCc1ccc(O)c(O)c1` [Compound 19, 1-(3,4-Dihydroxyphenyl)-7-(1H-indol-1-yl)heptan-3-one], the inhibition at 10 µM on LIMK1 was 28%.
Regarding `O=C(/C=C/c1ccc(O)c(O)c1)CCCCc1ccccc1` [Compound I], at LIMK1, the IC50 was 1590 nM and the inhibition at 10 µM is 101%.
`O=C(/C=C/c1ccccc1)CCCCc1ccccc1` [Compound VII]: at LIMK1, the inhibition at 10 µM is at most 0%.
For the compound `O=C(/C=C/c1ccc(O)c(O)c1)CCCc1ccccc1` [Compound VI], the inhibition at 10 µM on LIMK1 was 82%.
Take `O=C(/C=C/c1ccc(O)c(O)c1)CCc1ccccc1` [Compound V]: the inhibition at 10 µM at LIMK1 worked out at 68%.
Turning to `O=C(/C=C/c1cc(O)c(O)c(O)c1)CCCCc1ccccc1` [Compound XV], the GI50 in the experiment with HT-29 [1] is 28.8 ± 1.8 µM; in the experiment with HCT-116 [2] (Homo sapiens, SRB assay, 72 h, mean ± SD) it was over 30 µM. Besides, in the experiment with HCT-116 [2] (concentration of 30 µM), the “growth inhibition of HCT-116 cells” value is “did not inhibit the growth”. Also, the IC50 was over 30 µM in the experiment with HT-29 [3], over 30 µM with HCT-116 [4], 570 nM on LIMK1 and 569 nM at LIMK1 (as printed in text). In addition, the inhibition at 10 µM at LIMK1 turned out to be 112%.
With `O=C(/C=C/c1ccc(O)c(F)c1)CCCCc1ccccc1` [Compound X], at LIMK1, the inhibition at 10 µM was at most 0%.
In the case of `O=C(/C=C/c1ccc(O)c(O)c1)c1ccccc1` [III], at LIMK1, the inhibition at 10 µM worked out at 84%.
Regarding `O=C(CCCCc1ccccc1)CCc1ccc(O)c(O)c1` [II], the inhibition at 10 µM on LIMK1 is 30%.
On the same count and under the same terms, then `O=C(/C=C/c1ccc(O)c(O)c1)Cc1ccccc1` [IV], with 56%; and `O=C(/C=C/c1cccc(O)c1)CCCCc1ccccc1` [IX], with at most 0%.
As to `O=C(/C=C/c1ccc(O)cc1)CCCCc1ccccc1` [VIII], at LIMK1, the inhibition at 10 µM was at most 0%.
As for `O=C(/C=C/c1ccc(O)c([N+](=O)[O-])c1)CCCCc1ccccc1` [XIII], the inhibition at 10 µM on LIMK1 is 7%.
The same measure, in the same setting: the value for `O=C(/C=C/c1ccc(O)c(Br)c1)CCCCc1ccccc1` [XII] was 1%; that for `COc1cc(/C=C/C(=O)CCCCc2ccccc2)ccc1O` [XIV] was 1%; that for `O=C(/C=C/c1ccc(O)c(Cl)c1)CCCCc1ccccc1` [XI] was 4%.
For `COc1cc(/C=C/C(=O)CC(=O)/C=C/c2ccc(O)c(OC)c2)ccc1O` [curcumin], the IC50 in the experiment with LIMK is 30 µM.

Broadly, the IC50 is the point on the concentration scale where inhibition reaches its midpoint. A word on the inhibition: it is the relative decrease from the control value, in per cent. By GI50 is commonly meant the concentration that inhibits growth by half. A low value points to more potent growth inhibition.
